Measurements taken from the METLIN SMRT retention time set (Domingo-Almenara et al. 2019).

Assay: gradient 5% acetonitrile 3 min, to 50% in 2 min, to 85% in 15 min, held 3 min, 100 µL/min
Conditions: column: Zorbax Extend-C18 2.1 x 50 mm; eluents: water / acetonitrile, 0.1% formic acid
Outline: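 Over 3 months, pure standards in mixtures of ~100 molecules were run by HPLC coupled to a quadrupole time-of-flight mass spectrometer in positive and negative ionization mode. The column was a Zorbax Extend-C18 (2.1 × 50 mm, 1.8 μm) at 100 μL/min, eluted with water and acetonitrile each holding 0.1% formic acid, with 40 μL dead and 900 μL dwell volumes. Retention time was determined from adduct peaks chosen by software and checked manually.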

Compound | RP-LC retention time
CCn1ccc(C(=O)N2CC(n3cc(COC)nn3)C2)n1 | 605 s
CCN1CCC2(CC1)N=C(c1ccc3c(c1)OCO3)CC(c1cc(Br)ccc1O)N2 (stereo unspecified) | 634 s
O=C(Cn1ccn2nc(-c3ccccc3)c(CO)c2c1=O)Nc1ccccc1C(F)(F)F | 830 s
Cc1ncsc1C1N(C2CCN(C(=O)C3CCC3)CC2)C(=O)C12CCCC2 (stereo unspecified) | 661 s
CCN1CCN(CCNC(=O)c2cc(-c3ccc(C)cc3)cn2C)CC1 | 626 s
CCC(C)NC(=O)c1ccc2c(c1)Sc1ncccc1C(=O)N2CC (stereo unspecified) | 749 s
Cc1cc(C)cc(OCc2nc(CCN(C)C(=O)c3cccs3)no2)c1 | 974 s
CCNC(=O)N1CCc2c([nH]c3ccc(C)cc23)C12C(=O)N(C)c1ccccc12 (stereo unspecified) | 798 s
Cc1ccc(-c2nc3cnccn3c2Nc2cccc(C(F)(F)F)c2)cc1 | 972 s
COC(=O)c1c(C)[nH]c(C(=O)N2CCCC(C(=O)N3CCN(c4cccc(Cl)c4)CC3)C2)c1C (stereo unspecified) | 952 s
COc1cc(C(=O)N2CCN(c3cc(N4CCCC4)nc(C)n3)CC2)cc(OC)c1OC | 619 s
CCC(=O)Nc1ccc(CCc2nc3ccc(C(=O)NCCOC)cc3[nH]2)cc1 | 567 s
Cc1cc(C)cc(N2CC(c3nc(-c4ccc5c(c4)OCO5)no3)CC2=O)c1 (stereo unspecified) | 1040 s
Cc1ccccc1OCC(=O)NCc1c(C)noc1C | 790 s
COc1ccc(NS(=O)(=O)c2cc(-c3nc(C)c(C(=O)N4CCCC4)s3)n(C)c2)cc1OC | 727 s
CCn1cc(C)c(C(=O)O)c1CC(=O)Nc1ccc(Cl)cn1 | 835 s
CCCC(=O)Nc1ccc(CCc2nc3ccc(C(=O)NC4CC4)cc3[nH]2)cc1 | 599 s
CCOc1ccc(CNC(=O)c2snc(C(=O)NCc3ccccc3Cl)c2N)cc1OCC | 1090 s

Compound | RP-LC retention time
O=C(Cc1cccs1)NCC(c1ccsc1)N1CCCC1 (stereo unspecified) | 558 s
O=C(CN1C(=O)CCc2cc(Br)ccc21)Nc1ccccc1 | 889 s
COc1ccccc1-c1noc(C2CCCN2C(=O)c2cnccn2)n1 (stereo unspecified) | 720 s
O=C(Cn1ccn2nc(-c3ccc(F)cc3)c(CO)c2c1=O)N1CCc2ccccc21 | 857 s
O=C(NCC1CCN(Cc2ccccc2)CC1)C(=O)Nc1ccc(F)cc1F | 573 s
Cc1ccc(CN2CCC(CNC(=O)C3CCCN(c4cc(=O)n(C)c(=O)n4C)C3)CC2)cc1 (stereo unspecified) | 602 s
COc1ccc(-c2nn(-c3ccccc3)cc2C2NC(=O)NC(C)=C2C(=O)OC(C)C)cc1 (stereo unspecified) | 906 s
O=C(Nc1ccc2c(c1)OCO2)NC1CCCC(OC(=O)Nc2ccc(F)cc2)C1 (stereo unspecified) | 825 s
CCN1CCN(CCCNC(=O)C2CCCN(C(=O)c3[nH]c(C)c(C(=O)OC(C)C)c3C)C2)CC1 (stereo unspecified) | 579 s
CC(C)c1ccc(NC(=O)CC2COc3ccccc3NC2=O)cc1 (stereo unspecified) | 872 s
O=C(N[C@@H]1CN(c2ncccn2)C[C@H]1CO)c1ccc(F)cn1 | 595 s
COc1ccc(NC(=O)c2cn3c(n2)CCCC3)cc1OC | 570 s
O=S(=O)(c1cccnc1)N1CC(c2nc(CCOCc3ccccc3)no2)C1 | 835 s
O=C(Cn1nc2c3cc(-c4ccc(F)cc4)nn3ccn2c1=O)Nc1ccc(Br)cc1F | 989 s
Fc1ccc(-c2noc(-c3ccc(NC4CC4)nc3)n2)cc1 | 901 s
CCOC(=O)c1nc(NCCc2cc(OC)ccc2OC)c2ccccc2n1 | 768 s
Cc1cc(NC(=O)C2CCN(C(=O)Cc3c(C)noc3C)CC2)no1 | 621 s
CCCN1C(=O)c2c(C(=O)NCc3ccccc3C)ncn2CC1(C)C(=O)NCCC(C)C (stereo unspecified) | 883 s
